Reference: article PMC11024012, “Design, synthesis, and biochemical and computational screening of novel oxindole derivatives as inhibitors of Aurora A kinase and SARS-CoV-2 spike/host ACE2 interaction” (Medicinal Chemistry Research, 2024)
Several values for one entry are separate records, joined by “and”; a condition that tells them apart may be missing. Equal values may be shown once. Read-outs that look alike come from different tables or passages of the source.

Key:
Aurora A kinase = molecular target: T1, Aurora A kinase (Homo sapiens, UniProt O14965); test: Aurora A kinase inhibition assay (HTRF kinase assay / Z′-LYTE Kinase Assay Kit ser/thr 01 peptide); type: biochemical; conditions: for inhibition at 32 µM: 32 μM compound, read-out: Aurora A Kinase Percent block at 32 μM; for IC50: ATP 500 μM, Aurora A kinase 2.7–4.7 nM
T1 sequence (O14965 1-403): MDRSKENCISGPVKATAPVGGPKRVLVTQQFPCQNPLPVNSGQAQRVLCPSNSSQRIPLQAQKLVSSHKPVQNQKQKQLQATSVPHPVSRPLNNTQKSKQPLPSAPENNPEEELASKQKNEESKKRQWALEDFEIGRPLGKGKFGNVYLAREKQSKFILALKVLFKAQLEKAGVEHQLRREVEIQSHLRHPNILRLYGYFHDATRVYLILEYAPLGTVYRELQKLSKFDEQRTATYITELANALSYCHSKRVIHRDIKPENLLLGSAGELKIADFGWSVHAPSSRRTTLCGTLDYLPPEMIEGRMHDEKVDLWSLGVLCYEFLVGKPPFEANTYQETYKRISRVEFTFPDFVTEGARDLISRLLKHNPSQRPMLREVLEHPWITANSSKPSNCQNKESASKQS
Description: The activities of the synthesized compounds were evaluated using Invitrogen Z′-LYTE® Kinase Assay Kitser/thr 01 peptide. The bioassay was performed using Aurora A kinase at an optimum concentration of 2.7–4.7 nM and ATP at a concentration of 500 μM. Stock solutions of molecules were prepared at 10 mM in DMSO, and then serially diluted in buffer solution to yield final hit concentrations ranging from 0.01 μM to 100 μM. […] The percentage of inhibition and IC50 value were calculated using nonlinear regression of the log (concentration) vs inhibition percentage values using GraphPad Prism 7.04.

[1] = molecular target: T2, SARS-CoV-2 Spike RBD/ACE2 (Homo sapiens, UniProt Q9BYF1); test: biochemical; type: binding, SARS-CoV-2 (Wuhan / USA-WA/2020 wild-type) spike; human ACE2; conditions: for inhibition at 32 µM: read-out: Spike RBD/ACE2 Percent block at 32 μM
T2 construct: 5 nM HIS-tagged SARS-CoV-2 Spike-RBDs; purchased Sino Biological
T2 sequence (Q9BYF1 18-740): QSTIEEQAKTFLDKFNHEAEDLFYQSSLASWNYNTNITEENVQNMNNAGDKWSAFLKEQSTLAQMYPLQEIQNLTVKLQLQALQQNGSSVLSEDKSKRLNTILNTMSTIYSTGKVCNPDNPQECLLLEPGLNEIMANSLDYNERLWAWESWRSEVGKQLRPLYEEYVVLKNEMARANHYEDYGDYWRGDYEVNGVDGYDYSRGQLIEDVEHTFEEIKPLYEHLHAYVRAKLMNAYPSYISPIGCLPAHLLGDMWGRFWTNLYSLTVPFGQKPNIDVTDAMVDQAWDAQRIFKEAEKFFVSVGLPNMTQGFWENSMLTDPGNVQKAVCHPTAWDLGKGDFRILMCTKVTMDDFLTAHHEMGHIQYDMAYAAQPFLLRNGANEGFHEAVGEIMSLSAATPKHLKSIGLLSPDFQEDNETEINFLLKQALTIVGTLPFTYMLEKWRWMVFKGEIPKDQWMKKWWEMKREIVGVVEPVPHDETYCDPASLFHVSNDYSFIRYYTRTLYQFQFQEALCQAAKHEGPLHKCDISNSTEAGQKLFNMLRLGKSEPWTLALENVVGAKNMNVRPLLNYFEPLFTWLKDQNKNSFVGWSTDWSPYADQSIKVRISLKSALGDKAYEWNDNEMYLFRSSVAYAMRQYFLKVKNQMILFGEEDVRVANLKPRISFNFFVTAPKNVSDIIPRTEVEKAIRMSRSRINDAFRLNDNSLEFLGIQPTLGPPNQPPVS

Compound | inhibition at 32 µM (Aurora A kinase) [%] | inhibition at 32 µM [1] [%] | IC50 (Aurora A kinase) [µM] | IC50 ([1]; Spike RBD/ACE2 IC50) [µM] | IC50 ([1]; read-out: Spike RBD/ACE2 IC50) | Spike RBD/ACE2 Percent block at 32 μM [1] [%]
CC(=O)Nc1ccc2c(c1)C1(OCC(C)(C)CO1)C(=O)N2 [Compound 4a, N-(5’,5’-dimethyl-2-oxospiro[indoline-3,2’-[1,3]dioxan]-5-yl)acetamide] | 9.1 ± 6.5 | 0 |  |  |  | 
CC1(C)COC2(OC1)C(=O)Nc1ccc(NC(=O)Cc3ccc(Cl)cc3)cc12 [Compound 4b, 2-(4-chlorophenyl)-N-(5’,5’-dimethyl-2-oxospiro[indoline-3,2’-[1,3]dioxan]-5-yl)acetamide] | 20.9 ± 6.3 | 20.1 ± 11.5 |  |  |  | 
CC1(C)COC2(OC1)C(=O)Nc1ccc(NC(=O)CCN3CCOCC3)cc12 [Compound 4c, N-(5’,5’-dimethyl-2-oxospiro[indoline-3,2’-[1,3]dioxan]-5-yl)-3-morpholinopropanamide] | 1.6 ± 2.1 | 2 ± 2.9 |  |  |  | 
CC1(C)COC2(OC1)C(=O)Nc1ccc(NC(=O)c3ccc(Cl)cc3)cc12 [Compound 4d, 4-chloro-N-(5’,5’-dimethyl-2-oxospiro[indoline-3,2’-[1,3]dioxan]-5-yl)benzamide] | 17.8 ± 9.2 | 22.5 ± 5.7 |  |  |  | 
CC(=O)Nc1ccc2c(c1)/C(=N\Nc1ccc(C)cc1)C(=O)N2 [Compound 6a, (E)-N-(2-oxo-3-(2-(p-tolyl)hydrazineylidene)indolin-5-yl)acetamide] | 82.7 ± 2.7 | 21.5 ± 4.8 | 0.8 ± 0.1 |  |  | 
CC(=O)Nc1ccc2c(c1)/C(=N\Nc1ccc(Cl)cc1Cl)C(=O)N2 [Compound 6b, (E)-N-(3-(2-(2,4-dichlorophenyl)hydrazineylidene)-2-oxoindolin-5-yl)acetamide] | 26.4 ± 0.6 | 21.5 ± 6.2 |  |  |  | 
CC(=O)Nc1ccc2c(c1)/C(=N\Nc1ccncc1)C(=O)N2 [Compound 6c, (E)-N-(2-oxo-3-(2-(pyridine-4-yl)hydrazineylidene)indolin-5-yl)acetamide] | 58.1 ± 1.7 | 5.2 ± 4.1 | 5.5 ± 0.5 |  |  | 
Cc1ccc(N/N=C2/C(=O)Nc3ccc(NC(=O)Cc4ccc(Cl)cc4)cc32)cc1 [Compound 6d, (E)-2-(4-chlorophenyl)-N-(2-oxo-3-(2-(p-tolyl)hydrazineylidene)indolin-5-yl)acetamide] | 54.2 ± 6.7 | 3.2 ± 0.4 | 22.8 ± 7.9 |  |  | 
O=C(Cc1ccc(Cl)cc1)Nc1ccc2c(c1)/C(=N\Nc1ccc(Cl)cc1Cl)C(=O)N2 [Compound 6e, (E)-2-(4-chlorophenyl)-N-(3-(2-(2,4-dichlorophenyl)hydrazineylidene)-2-oxoindolin-5-yl)acetamide] | 10 ± 4.9 | 10.4 ± 12.1 |  |  |  | 
O=C(Cc1ccc(Cl)cc1)Nc1ccc2c(c1)/C(=N\Nc1ccc(C(F)(F)F)cc1)C(=O)N2 [Compound 6f, (E)-2-(4-chlorophenyl)-N-(2-oxo-3-(2-(4(trifluoromethyl)phenyl)hydrazineylidene)indolin-5-yl)acetamide] | 87.8 ± 2.9 | 27.1 ± 3.9 | 1.8 ± 0.2 |  |  | 
O=C(CCN1CCOCC1)Nc1ccc2c(c1)/C(=N\Nc1ccc(Cl)cc1Cl)C(=O)N2 [Compound 6h, (E)-N-(3-(2-(2,4-dichlorophenyl)hydrazineylidene)-2-oxoindolin-5-yl)-3-morpholinopropanamide] | 10.3 ± 7.1 | 21.3 ± 5.6 |  |  |  | 
O=C(CCN1CCOCC1)Nc1ccc2c(c1)/C(=N\Nc1ccc(C(F)(F)F)cc1)C(=O)N2 [Compound 6i, (E)-3-morpholino-N-(2-oxo-3-(2-(4(trifluoromethyl)phenyl)hydrazineylidene)indolin-5-yl)propanamide] | 79.3 ± 1.5 | 64.5 ± 9 | 4.8 ± 0.3 | 12.1 ± 2.9 | < 30 µM and 22.4 µM | 
Cc1ccc(N/N=C2/C(=O)Nc3ccc(NC(=O)c4ccc(Cl)cc4)cc32)cc1 [Compound 6j, (E)-4-chloro-N-(2-oxo-3-(2-(p-tolyl)hydrazineylidene)indolin-5-yl)benzamide] | 13.2 ± 8.2 | 2.8 ± 4 |  |  |  | 
O=C1Nc2ccc(NC(=O)c3ccc(Cl)cc3)cc2/C1=N\Nc1ccc(Cl)cc1Cl [Compound 6k, (E)-4-chloro-N-(3-(2-(2,4-dichlorophenyl)hydrazineylidene)-2-oxoindolin-5-yl)benzamide] | 13.4 ± 14.6 | 34.4 ± 20.4 |  |  |  | 
O=C1Nc2ccc(NC(=O)c3ccc(Cl)cc3)cc2/C1=N\Nc1ccc(C(F)(F)F)cc1 [Compound 6l, (E)-4-chloro-N-(2-oxo-3-(2-(4(trifluoromethyl)phenyl)hydrazineylidene)indolin-5-yl)benzamide] | 19.4 ± 13.5 | 44.2 ± 9 |  |  |  | 
O=C1Nc2ccc(NC(=O)c3ccc(Cl)cc3)cc2/C1=N\Nc1ccncc1 [Compound 6m, (E)-4-chloro-N-(2-oxo-3-(2-(pyridine-4-yl)hydrazineylidene)indolin-5-yl)benzamide] | 80.2 ± 1.2 | 0 | 3.1 ± 1.3 |  |  | 
CCS(=O)(=O)Nc1ccc2c(c1)/C(=C(/Nc1ccc(CN3CCCCC3)cc1)c1ccccc1)C(=O)N2 [Hesperadin, reference compound] | 93.8 ± 0.8 | 43.3 ± 10.6 | 0.0053 ± 0.0027 |  |  | 
Hopeaphenol [reference compound] |  |  |  |  | 0.3 ± 0.1 µM | 83.6 ± 2.0
